The source of these data is patent publication US9464064B2, “HCV helicase inhibitors and methods of use thereof” (University of Kansas, priority 2011, dated 2016).

The target of this experiment is T1, HCV NS3 helicase NS3h_1b(con1) (Hepatitis C virus genotype 1b, UniProt Q9WMX2).
T1 construct: truncated C-terminally His-tagged NS3 proteins lacking the N-terminal protease, called NS3h; His-tag (C); made in house
The experiment is described as follows: MBHA screen of NCI mechanistic set library at 20 μM (percent inhibition, compound interference). The note with it: compounds at 20 μM; for Inh. (%) (Inhibition): calculated from Equation 1. In kind it is biochemical. The procedure:
All molecular beacon-based helicase assays (MBHAs) were performed according to known methods (Belon & Frick (2008) supra; Belon & Frick (2009) supra). […] In each flat, black 384-well plate, 56 compounds were tested, in triplicate, along with three negative controls (DMSO only), three positive controls (500 nM dT20), and two wells with no enzyme. Fluorescence was read before ATP (F0) addition and 30 minutes after ATP was added to 1 mM (F30) using a Tecan Infinite M200 fluorescence microplate reader with excitation and emission wavelengths set to 643 and 670 nm, respectively. Percent inhibition was calculated with equation 1, and compound interference in the MBHA was calculated with equation 2.
In Equations 1 and 2, Fc0 is the fluorescence of the reactions containing the test compound before adding ATP, Fc30 is the fluorescence of the test compound reaction 30 minutes after adding ATP. F(−)0 is the average of three DMSO-only negative control reactions before adding ATP and F(−)30 is the average of three DMSO-only reactions 30 minutes after adding ATP.
To identify HCV helicase inhibitors, the MBHA was first used to screen the National Cancer Institute Developmental Therapeutics Program's mechanistic set library. In total, 827 compounds (at 20 μM) were screened using a MBHA with a DNA substrate (Table 1). Compounds were ranked by their ability to inhibit HCV helicase-catalyzed DNA unwinding as calculated from Equation 1.
Compound interference in the MBHA was evaluated by comparing the fluorescence of reactions containing each compound to the fluorescence of DMSO-only negative controls before ATP was added.

The mark [1] stands for this setting: assay interference calculated with Equation 2 (fluorescence vs DMSO-only controls before ATP).
The mark [2] stands for this setting: MBHA with DNA substrate, assay interference calculated with Equation 2.

T1 sequence (Q9WMX2 1192-1657): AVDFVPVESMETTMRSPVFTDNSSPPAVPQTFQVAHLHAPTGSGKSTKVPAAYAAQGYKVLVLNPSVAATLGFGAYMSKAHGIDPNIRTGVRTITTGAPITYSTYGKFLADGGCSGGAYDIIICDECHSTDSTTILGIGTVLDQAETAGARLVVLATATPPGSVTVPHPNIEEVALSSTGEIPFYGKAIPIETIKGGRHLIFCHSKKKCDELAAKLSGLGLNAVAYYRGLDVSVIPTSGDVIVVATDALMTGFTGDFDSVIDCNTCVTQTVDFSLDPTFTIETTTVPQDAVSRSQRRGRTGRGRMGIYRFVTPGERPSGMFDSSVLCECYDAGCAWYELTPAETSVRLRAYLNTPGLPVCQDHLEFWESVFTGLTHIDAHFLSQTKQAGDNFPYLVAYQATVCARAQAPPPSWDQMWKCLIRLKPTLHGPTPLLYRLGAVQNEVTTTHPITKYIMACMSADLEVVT

Regarding `CC[C@H]1CN2CCc3cc(OC)c(OC)cc3[C@@H]2C[C@@H]1C[C@H]1NCCc2cc(O)c(OC)cc21` [Compound 32944], the “Inh. (%) (Inhibition)” value (MBHA with a DNA substrate) is −28.9%. Also, the “Int.* (Ratio) (Interference)” value under setting [1] is 1.02 Ratio.

For `CC(/C=N/N=C(N)N)=N\N=C(N)N` [Compound 32946], under setting [2], the “Int.* (Ratio) (Interference)” value is on record as 1.07 Ratio. For the same compound, for the setting “MBHA with DNA substrate”, the “Inh. (%) (Inhibition)” value is on record as −13.6%.

As for `COc1cc(/C=C/C(=O)CC(=O)/C=C/c2ccc(O)c(OC)c2)ccc1O` [Compound 32982], the “Int.* (Ratio) (Interference)” value under setting [2] was 0.90 Ratio. Besides, the “Inh. (%) (Inhibition)” value (MBHA with DNA substrate) is given as 15.0%.

Take `COc1c(O[C@@H]2O[C@H](CO)[C@@H](O)[C@H](O)[C@H]2O)cc2c(c1OC)-c1ccc(OC)c(=O)cc1[C@@H](NC(C)=O)CC2` [Compound 32992]: the “Inh. (%) (Inhibition)” value (MBHA with a DNA substrate) was −28.7%. The “Int.* (Ratio) (Interference)” value under setting [1] is 1.04 Ratio.

In the case of `Oc1ccc(-c2nc3ccccc3s2)cc1` [Compound 33004], the “Int.* (Ratio) (Interference)” value under setting [2] is reported as 1.00 Ratio. The “Inh. (%) (Inhibition)” value (MBHA with DNA substrate) was −0.9%.

Take `CC(=O)Nc1ccc(-c2nc3ccccc3s2)cc1` [Compound 33006]: the “Int.* (Ratio) (Interference)” value under setting [2] is on record as 0.89 Ratio. The “Inh. (%) (Inhibition)” value (MBHA with DNA substrate) is reported as 15.9%.

Consider `COc1cc2c(c(OC)c1OC)-c1ccc(OC)c(=O)cc1[C@@H](NC(=O)c1ccccc1)CC2` [Compound 33410], for which the “Inh. (%) (Inhibition)” value (MBHA with a DNA substrate) is −28.8%. Moreover, the “Int.* (Ratio) (Interference)” value under setting [1] is given as 1.16 Ratio.

For the compound `CCN1C=C/C(=C\C=C\c2cc[n+](CC)c3ccccc23)c2ccccc21.[I-]` [Compound 34391], the “Int.* (Ratio) (Interference)” value under setting [2] is 0.24 Ratio. The “Inh. (%) (Inhibition)” value (MBHA with DNA substrate) is on record as 100.6%.

On to `COc1c2c(c(OC)c3c1c(=O)c1ccccc1n3C)OCO2` [Compound 34757], for which the “Int.* (Ratio) (Interference)” value under setting [2] is listed as 0.98 Ratio. The “Inh. (%) (Inhibition)” value (MBHA with DNA substrate) is given as −7.4%.

On to `O=S(=O)(O)c1cc(N=Nc2cc(S(=O)(=O)O)c3ccccc3c2O)ccc1/C=C/c1ccc(N=Nc2cc(S(=O)(=O)O)c3ccccc3c2O)cc1S(=O)(=O)O.[Na+]` [Compound 34931], for which, under setting [2], the “Int.* (Ratio) (Interference)” value was 0.90 Ratio. The “Inh. (%) (Inhibition)” value (MBHA with DNA substrate) is listed as 89.2%.

On to `O=C(C[n+]1ccc2ccccc2c1)c1ccc2ccc3ccccc3c2c1` [Compound 35489], for which the “Int.* (Ratio) (Interference)” value under setting [2] is listed as 1.04 Ratio. In addition, the “Inh. (%) (Inhibition)” value (MBHA with DNA substrate) is 18.7%.

For the compound `Nc1nc(SCCc2ccccc2)c2[nH]cnc2n1` [Compound 35866], the “Int.* (Ratio) (Interference)” value under setting [2] was 0.93 Ratio. The “Inh. (%) (Inhibition)” value (MBHA with DNA substrate) is given as 15.3%.

For the compound `O=S1(=O)CCN(c2ccccc2CC(c2c[nH]c3ccccc23)c2c[nH]c3ccccc23)CC1` [Compound 35949], the “Int.* (Ratio) (Interference)” value under setting [2] is on record as 1.25 Ratio. Also, the “Inh. (%) (Inhibition)” value (MBHA with DNA substrate) is listed as −8.9%.

Consider `C=C1C(=O)OC2CC1C(OC(C)=O)C/C(C)=C/CC/C(C)=C\CCC2(C)O` (stereo not shown) [Compound 36437], for which the “Int.* (Ratio) (Interference)” value under setting [2] is on record as 0.99 Ratio. Moreover, the “Inh. (%) (Inhibition)” value (MBHA with DNA substrate) is listed as −17.3%.

With `C[C@@H]1C[C@H]2OC(=O)[C@@]3(C)CCC[C@@](C)([C@@H]23)[C@@]1(O)CCc1ccoc1` [Compound 36693], under setting [2], the “Int.* (Ratio) (Interference)” value was 0.76 Ratio. Besides, the “Inh. (%) (Inhibition)” value (MBHA with DNA substrate) was −8.8%.

As for `Nc1nc(SCc2ccccc2Cl)c2[nH]cnc2n1` [Compound 36826], under setting [2], the “Int.* (Ratio) (Interference)” value is reported as 0.98 Ratio. In addition, for the setting “MBHA with DNA substrate”, the “Inh. (%) (Inhibition)” value is recorded as 3.4%.

`COc1nc(N)nc2nc[nH]c12` [Compound 37364]: under setting [2], the “Int.* (Ratio) (Interference)” value is listed as 1.01 Ratio. Besides, the “Inh. (%) (Inhibition)” value (MBHA with DNA substrate) is reported as 16.5%.

As for `Clc1ccc(C(c2ccccc2Cl)C(Cl)Cl)cc1` (stereo not shown) [Compound 38721], the “Int.* (Ratio) (Interference)” value under setting [2] is 0.93 Ratio. For the same compound, the “Inh. (%) (Inhibition)” value (MBHA with DNA substrate) is 0.3%.

In the case of `O=C1C(CN2CCCCC2)CCCC1CN1CCCCC1` (stereo not shown) [Compound 39202], the “Int.* (Ratio) (Interference)” value under setting [2] is 0.91 Ratio. In addition, under “MBHA with DNA substrate”, the “Inh. (%) (Inhibition)” value is given as 4.5%.

Regarding `Cc1nc(Cl)c(C)c(Cl)n1` [Compound 40212], the “Int.* (Ratio) (Interference)” value under setting [2] was 0.95 Ratio. In addition, the “Inh. (%) (Inhibition)” value (MBHA with DNA substrate) is reported as 1.1%.
